14 compounds from patent US6943191B1, “Disubstituted lavendustin A analogs and pharmaceutical composition comprising the analogs” (The United States of America as represented by the …, priority 1998, dated 2005) can be followed below.

Like-named read-outs stand apart in the source and are kept apart here.

In general, GI50 refers to the concentration at which growth is held to half of that of the control. In general, IC50 refers to the concentration that inhibits the measured activity by half.

Test [1] relates to panel of approximately 60 different human tumor cell lines. Kind of test: National Cancer Institute drug screen, mean-graph parameters. The test is classed as cell-based. As to conditions: mean over cell line panel, two days exposure; for GI50: Homo sapiens, 48 h, read-out: Tumor Cell Mean log GI50 (converted). The method in brief:
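About 60 human tumour cell lines in eight histology subpanels were exposed continuously to a concentration range for two days. GI50 (50% growth decrease versus untreated control), TGI (cell number equal to start) and LC50 (50% reduction versus start) were derived per cell line and summarised as mean-graph negative log10 values.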

Another test deals with K562 cells. Kind of test: K562 cell culture and growth assay, 6 day MTT. Particulars: K562, 6 days, 4 or more experiments. The test is classed as cell-based, human. Summed up: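 Cells (2×10^3/well) in RPMI with 10% fetal calf serum incubated with increasing compound concentrations in DMSO, with DMSO-matched controls. Growth quantitated after 6 days by MTT reduction to formazan.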

In test [2] the test system is minimum of 12 human cancer cell lines. Kind of test: Hollow fiber assay in mice, point score. It counts as in vivo. Particulars: for Hollow Fiber Assay IP score: first number of cell; for Hollow Fiber Assay SC score: second number of cell; for IP+SC score / SC score: hollow fiber assay. How it is done:
Compounds satisfying Formulas 1 and 2 also have been tested for in vivo activity in the hollow fiber assay. See Example 12 below for the procedure used for the in vivo tests. Each compound tested was tested against a minimum of 12 human cancer cell lines. Data is reported as % T/C (i.e., the […]) for each of the 2 compound doses against each of the cell lines with separate values calculated for the intraperitoneal and subcutaneous samples, with a target value for % T/C being about 50 or less.
Compounds were selected for further in vivo testing in standard subcutaneous xenograft models on the basis of several hollow fiber assay criteria. These criteria include: (1) a % T/C of 50 or less in 10 of the 48 possible test combinations (12 cell lines×2 sites×2 compound doses); (2) activity at a distance (intrapentoneal drug/subcutaneous culture) in a minimum of 4 of the 24 possible combinations; and/or (3) a net cell kill of 1 or more cell lines in either implant site. To simplify evaluation, a point system has been adopted which allows rapid assessment of a compound's activity. A value of 2 is assigned for each compound dose which results in a 50% or greater reduction in viable cell mass. The intraperitoneal and subcutaneous samples were scored separately so that criteria (1) and (2) could be evaluated. Compounds with a combined IP+SC score≧20, an SC score≧8, or a net cell kill of one or more cell lines were referred for xenograft testing. These criteria have been statistically validated by comparing the activity outcomes of greater than 80 randomly selected compounds in the hollow fiber assay and in the xenograft testing.
This example describes the method used for in vivo testing of mice. Human cancer cells were cultivated in polyvinylidene fluoride (PVDF) hollow fibers. A sample of each cancer cell line was implanted intraperitoneally and subcutaneously in mice. Each mouse received a total of 6 fibers, 3 intraperitoneally and 3 subcutaneously, representing 3 distinct cancer cell lines. Three mice were treated with compounds made according to the present invention at each of two test doses intraperitoneally using a QD×4 treatment schedule. Vehicle controls consisted of 6 mice receiving the compound diluent only The fiber cultures were collected on the day following the last treatment. Anticancer effects were assessed by determining viable cell mass for each of the coil line using a formazan dye (MTT) conversion assay. From this, the % TIC was calculated using the average optical density of the compound-treated samples divided by the average optical density of the vehicle controls. In addition, the net increase in cell mass was determined for each sample as samples of fiber cultures were assessed for viable cell mass on the day of implantation into mice. This allowed cytostatic and cytocidal capacities of these compounds to be assessed.

[3] abbreviates: Homo sapiens, 144 h, Table 10, mean ± S.E., read-out: IC50 (μM) 6dMTT.
Where [4] appears, read: Table 10, mean ± S.E., read-out: IC50 (μM) 6dMTT.
The mark [5] stands for this setting: Homo sapiens, 144 h, Table 8, mean+S.E., read-out: IC50 (μM) 6 dMTT.
Setting [6] is: Table 8, intraperitoneal fibers.

For the compound `COC(=O)c1ccc(CCc2cc(O)c(Br)cc2O)cc1`, in test [1] (Table 10), the 50% growth inhibitory concentration (GI50) was 12.3 µM and the “Tumor Cell Mean log TGI” value is given as −4.54. Besides, the IC50 in the test with K562 cells (setting [3]) turned out to be 7 ± 0.5 µM. In test [2] (Table 10), the “Hollow Fiber Assay IP score” value is given as 0 + 0 = 0; the “Hollow Fiber Assay SC score” value is reported as 0 + 0 = 0; the “Hollow Fiber Assay Total Ip and SC Score” value is on record as 0 + 0 = 0.
Regarding `COC(=O)c1ccc(CCC2=CC(=O)C(Br)=CC2=O)cc1`, in test [1] (Table 10), the concentration for 50% growth inhibition (GI50) is 14.1 µM and the “Tumor Cell Mean log TGI” value is on record as −4.43. The IC50 in the test on K562 cells (setting [3]) is 36.5 ± 1 µM. Besides, in test [2] (Table 10), the “Hollow Fiber Assay IP score” value is 0 + 0 = 0; the “Hollow Fiber Assay SC score” value is 0 + 0 = 0; the “Hollow Fiber Assay Total Ip and SC Score” value was 0 + 0 = 0.
As for `CC(C)OC(=O)c1ccc(CCC2=CC(=O)C(Br)=CC2=O)cc1`, in test [1] (Table 10), the “Tumor Cell Mean log GI50” value is −4.85 and the “Tumor Cell Mean log TGI” value is reported as −4.48. Moreover, the IC50 in the test with K562 cells (setting [4]) turned out to be 59.8 ± 0.44 µM. Also, in test [2] (Table 10), the “Hollow Fiber Assay IP score” value was 0 + 0 = 0; the “Hollow Fiber Assay SC score” value was 0 + 0 = 0; the “Hollow Fiber Assay Total Ip and SC Score” value is given as 0 + 0 = 0.
Take `CC(C)(C)OC(=O)c1ccc(NCc2cc(O)ccc2O)cc1` [COOC(CH3)3 / H / H, 4′-t-butylbenzoate-1′-N-2,5-dihydroxybenzylamine]: in test [1] (Table 8), the “Tumor Cell Mean log GI50” value is listed as −5.66 and the “Tumor Cell Mean log TGI” value is −5.03. In the test with K562 cells (setting [5]), the half-inhibitory concentration (IC50) is 16.4 µM. In addition, the “Hollow Fiber Assay IP score” value in test [2] (setting [6]) is recorded as 2. Besides, in test [2] (Table 8, subcutaneous fibers), the “Hollow Fiber Assay SC score” value is recorded as 2. Besides, the “Hollow Fiber Assay Total Ip and SC Score” value in test [2] (Table 8) stood at 4.
For the compound `O=C(OCc1ccccc1)c1ccc(NCc2cc(O)ccc2O)cc1` [COOCH2Ph / H / H], in test [1] (Table 8), the “Tumor Cell Mean log GI50” value is −5.85 and the “Tumor Cell Mean log TGI” value is listed as −5.35. Moreover, the IC50 in the test on K562 cells (setting [5]) was found to be 12 µM. The “Hollow Fiber Assay IP score” value in test [2] (setting [6]) is on record as 6. In test [2] (Table 8, subcutaneous fibers), the “Hollow Fiber Assay SC score” value came out at 2. Moreover, the “Hollow Fiber Assay Total Ip and SC Score” value in test [2] (Table 8) was determined as 8.
Turning to `COC(=O)c1ccc(C=Cc2cc(O)ccc2O)cc1` [COOCH3 / 2,5-dihydoxyphenyl / CH═CH / H], in test [1] (Table 10), the GI50 was 3.31 µM and the “Tumor Cell Mean log TGI” value was −4.81. Besides, the 50% inhibitory concentration (IC50) in the test with K562 cells (setting [3]) was found to be 9.72 ± 0.49 µM. Moreover, in test [2] (Table 10), the “Hollow Fiber Assay IP score” value worked out at 2; the “Hollow Fiber Assay SC score” value is recorded as 4; the “Hollow Fiber Assay Total Ip and SC Score” value is 6.
Take `COC(=O)c1ccc(/C=C/C2=CC(=O)C=CC2=O)cc1` [COOCH3 / 2,5-quinoyl / CH═CH / H]: in test [1] (Table 10), the “Tumor Cell Mean log GI50” value is −4.86 and the “Tumor Cell Mean log TGI” value is recorded as −4.40. Moreover, the IC50 in the test on K562 cells (setting [4]) worked out at 17.8 ± 0.22 µM. For the same compound, in test [2] (Table 10), the “Hollow Fiber Assay IP score” value is recorded as 2; the “Hollow Fiber Assay SC score” value is reported as 0; the “Hollow Fiber Assay Total Ip and SC Score” value is 2.
In the case of `CC(C)OC(=O)c1ccc(CCC2=CC(=O)C=CC2=O)cc1` [COOCH(CH3)2 / 2,5-quinoyl / CH2—CH2 / H], in test [1] (Table 10), the “Tumor Cell Mean log GI50” value is recorded as −5.05 and the “Tumor Cell Mean log TGI” value is recorded as −4.58. For the same compound, in the test with K562 cells (setting [4]), the half-maximal inhibitory concentration (IC50) came to 19.9 ± 0.5 µM. Further, in test [2] (Table 10), the “Hollow Fiber Assay IP score” value is given as 0 + 0 = 0; the “Hollow Fiber Assay SC score” value is on record as 0 + 0 = 0; the “Hollow Fiber Assay Total Ip and SC Score” value is reported as 0 + 0 = 0.
Turning to `CC(C)OC(=O)c1ccc(NCc2cc(O)ccc2O)cc1Cl` [COOCH(CH3)2 / Cl / H, 5′-chloro-4′-isopropylbenzoate-1′-N-2,5-dihydroxybenzylamine], in test [1] (Table 8), the “Tumor Cell Mean log GI50” value is on record as −5.46 and the “Tumor Cell Mean log TGI” value is reported as −5.65. Besides, the IC50 with K562 cells (Table 8, mean+S.E., read-out: IC50 (μM) 6 dMTT) came to 21.6 µM. In addition, the “Hollow Fiber Assay IP score” value in test [2] (setting [6]) was 2. Besides, the “Hollow Fiber Assay SC score” value in test [2] (Table 8, subcutaneous fibers) was determined as 0. Besides, the “Hollow Fiber Assay Total Ip and SC Score” value in test [2] (Table 8) worked out at 2.
For the compound `CC(C)OC(=O)c1ccc(NCc2cc(O)ccc2O)cc1` [COOCH(CH3)2 / H / H], in test [1] (Table 8), the “Tumor Cell Mean log GI50” value was −5.52 and the “Tumor Cell Mean log TGI” value is −4.84. Moreover, the IC50 with K562 cells (setting [5]) was determined as 15.1 µM. In addition, the “Hollow Fiber Assay IP score” value in test [2] (setting [6]) is recorded as 4. Besides, the “Hollow Fiber Assay SC score” value in test [2] (Table 8, subcutaneous fibers) came to 6. Besides, the “Hollow Fiber Assay Total Ip and SC Score” value in test [2] (Table 8) turned out to be 10.
As for `CC(C)C(OC(=O)c1ccc(NCC2=CC(=O)C=CC2=O)cc1)C(C)C` [COOCH[CH(CH3)2]2 / H / 2,5-quinoyl], in test [1] (Table 9), the “Tumor Cell Mean log GI50” value is listed as −5.25 and the “Tumor Cell Mean log TGI” value is on record as −4.78. Besides, the 50% inhibitory concentration (IC50) in the test on K562 cells (Table 9, mean ± S.E., read-out: IC50 (μM) 6dMTT) was found to be 38.8 ± 12.8 µM. For the same compound, the “Hollow Fiber Assay IP score” value in test [2] (Table 9, intraperitoneal fibers) is recorded as 2. In addition, the “Hollow Fiber Assay SC score” value in test [2] (Table 9, subcutaneous fibers) is 4. The “Hollow Fiber Assay Total Ip and SC Score” value in test [2] (Table 9) is 6.
For `CC(C)C(OC(=O)c1ccc(NCc2cc(O)ccc2O)cc1)C(C)C` [COOCH[CH(CH3)2]2 / H / H], in test [1] (Table 8), the “Tumor Cell Mean log GI50” value was −5.91 and the “Tumor Cell Mean log TGI” value was −5.35. The 50% inhibitory concentration (IC50) in the test on K562 cells (setting [5]) came out at 9.98 µM. Also, the “Hollow Fiber Assay IP score” value in test [2] (setting [6]) was found to be 4. Moreover, in test [2] (Table 8, subcutaneous fibers), the “Hollow Fiber Assay SC score” value is 2. Besides, the “Hollow Fiber Assay Total Ip and SC Score” value in test [2] (Table 8) came out at 6.
In the case of `O=C(OC12CC3CC(CC(C3)C1)C2)c1ccc(NCc2cc(O)ccc2O)cc1` [Compound 6, 4′-adamantylbenzoate-1′-N-2,5-dihydroxybenzylamine], in test [1] (Table 8), the “Tumor Cell Mean log GI50” value is reported as −6.03 and the “Tumor Cell Mean log TGI” value was −5.44. Also, the IC50 with K562 cells (setting [5]) amounted to 9.75 µM. Besides, the “Hollow Fiber Assay IP score” value in test [2] (setting [6]) was determined as 8. In addition, the “Hollow Fiber Assay SC score” value in test [2] (Table 8, subcutaneous fibers) came out at 8. Moreover, the “Hollow Fiber Assay Total Ip and SC Score” value in test [2] (Table 8) is given as 16. In addition, in test [2], the “IP+SC score” value is given as 16 and the SC score is 8.
As for `O=C(OCC12CC3CC(CC(C3)C1)C2)c1ccc(NCc2cc(O)ccc2O)cc1` [Compound 7, 4′-4′-adamantylmethylbenzoate-1′-N-2,5-dihydroxybenzylamine], in test [1] (Table 8), the “Tumor Cell Mean log GI50” value is listed as −5.89 and the “Tumor Cell Mean log TGI” value is given as −5.09. The concentration for half-maximal inhibition (IC50) with K562 cells (setting [5]) was determined as 12.8 µM. Also, the “Hollow Fiber Assay IP score” value in test [2] (setting [6]) was determined as 12. In addition, the “Hollow Fiber Assay SC score” value in test [2] (Table 8, subcutaneous fibers) is given as 8. In addition, in test [2] (Table 8), the “Hollow Fiber Assay Total Ip and SC Score” value came out at 20. Moreover, in test [2], the “IP+SC score” value worked out at 20 and the SC score amounted to 8.
